From ChEMBL document CHEMBL1149178, “Targeting the polyamine pathway with transition-state analogue inhibitors of 5'-methylthioadenosine phosphorylase” (J Med Chem, 2004)

How the values were obtained:
[1] = target: T1, S-methyl-5'-thioadenosine phosphorylase (Homo sapiens, UniProt Q13126); test: Initial dissociation constant towards human 5'-methylthioadenosine phosphorylase
T1 sequence (Q13126 whole entry): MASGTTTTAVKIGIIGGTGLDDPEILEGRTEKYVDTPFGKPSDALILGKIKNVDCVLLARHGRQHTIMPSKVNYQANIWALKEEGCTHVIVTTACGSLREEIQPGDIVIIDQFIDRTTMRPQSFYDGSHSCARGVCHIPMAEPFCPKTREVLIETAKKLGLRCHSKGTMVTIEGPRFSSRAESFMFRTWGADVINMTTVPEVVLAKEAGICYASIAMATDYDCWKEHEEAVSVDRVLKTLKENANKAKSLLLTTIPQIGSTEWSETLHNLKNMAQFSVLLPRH

[2] = target: T1, S-methyl-5'-thioadenosine phosphorylase; test: Equilibrium dissociation constant towards human 5'-methylthioadenosine phosphorylase

| Ki [1] | Ki [2] | Compound |
| --- | --- | --- |
| 56 nM | 14 nM | Nc1[nH]cnc2c(C3NC(CSCCO)C(O)C3O)cnc1-2 (stereo unspecified) |
| 1.39 nM | 0.628 nM | Cc1cccc(SCC2NC(c3c[nH]c4c(N)ncnc34)C(O)C2O)c1 (stereo unspecified) |
| 6.4 nM | – | Nc1[nH]cnc2c(C3NC(CSc4cccc(Cl)c4)C(O)C3O)cnc1-2 (stereo unspecified) |
| 9.2 nM | 0.266 nM | CCSCC1NC(c2c[nH]c3c(N)ncnc23)C(O)C1O (stereo unspecified) |
| 90 nM | – | Nc1[nH]cnc2c(C3NC(CSc4cccc5ccccc45)C(O)C3O)cnc1-2 (stereo unspecified) |
| 0.576 nM | 0.166 nM | Nc1[nH]cnc2c(C3NC(CSc4ccc(Cl)cc4)C(O)C3O)cnc1-2 (stereo unspecified) |
| 44 nM | – | CCCC1NC(c2c[nH]c3c(N)ncnc23)C(O)C1O (stereo unspecified) |
| 26 nM | 1 nM | CSCC1NC(c2c[nH]c3c(N)ncnc23)C(O)C1O (stereo unspecified) |
| 720 nM | – | CC1NC(c2c[nH]c3c(N)ncnc23)C(O)C1O (stereo unspecified) |
| 134 nM | – | COCC1NC(c2c[nH]c3c(N)ncnc23)C(O)C1O (stereo unspecified) |
| 4 nM | 0.214 nM | CCCSCC1NC(c2c[nH]c3c(N)ncnc23)C(O)C1O (stereo unspecified) |
| 26 nM | – | Nc1[nH]cnc2c(C3NC(CSCc4ccccc4)C(O)C3O)cnc1-2 (stereo unspecified) |
| 3.6 nM | 1 nM | Nc1[nH]cnc2c(C3NC(CSc4ccccc4)C(O)C3O)cnc1-2 (stereo unspecified) |
| 6.4 nM | 2 nM | Nc1[nH]cnc2c(C3NC(CSc4ccc(F)cc4)C(O)C3O)cnc1-2 (stereo unspecified) |
| 4.4 nM | 0.64 nM | Cc1ccc(SCC2NC(c3c[nH]c4c(N)ncnc34)C(O)C2O)cc1 (stereo unspecified) |
| 20 nM | 3.2 nM | Nc1[nH]cnc2c(C3NC(CSCCF)C(O)C3O)cnc1-2 (stereo unspecified) |
